Target: Focal adhesion kinase 1 (Homo sapiens, UniProt Q05397)
Test: FAK Kinase Assay
Procedure: The inhibitory activity of a compound against FAK was determined in a buffer containing 5 mM HEPES, pH 7.5, 0.01% Triton, 0.5 mM EGTA, and 0.01% BRIJ™-35 in a 384-well assay plate. The assay was carried out in the presence of the FAK at 1 nM and ATP at 6.8 μM using fluorescein-polyGT (0.2 μM) as an FAK substrate. Each assay mixture was incubated at room temperature for 30 min. A LANTHASCREEN Tb-PY20 antibody was added to each well to stop the enzymatic reaction. The plate was incubated at room temperature for 60 min before reading on an ENVISION using TR-FRET module (excitation at 340 nm and emission at 520 nm and 495 nm).

Focal adhesion kinase 1, sequence (Q05397 whole entry): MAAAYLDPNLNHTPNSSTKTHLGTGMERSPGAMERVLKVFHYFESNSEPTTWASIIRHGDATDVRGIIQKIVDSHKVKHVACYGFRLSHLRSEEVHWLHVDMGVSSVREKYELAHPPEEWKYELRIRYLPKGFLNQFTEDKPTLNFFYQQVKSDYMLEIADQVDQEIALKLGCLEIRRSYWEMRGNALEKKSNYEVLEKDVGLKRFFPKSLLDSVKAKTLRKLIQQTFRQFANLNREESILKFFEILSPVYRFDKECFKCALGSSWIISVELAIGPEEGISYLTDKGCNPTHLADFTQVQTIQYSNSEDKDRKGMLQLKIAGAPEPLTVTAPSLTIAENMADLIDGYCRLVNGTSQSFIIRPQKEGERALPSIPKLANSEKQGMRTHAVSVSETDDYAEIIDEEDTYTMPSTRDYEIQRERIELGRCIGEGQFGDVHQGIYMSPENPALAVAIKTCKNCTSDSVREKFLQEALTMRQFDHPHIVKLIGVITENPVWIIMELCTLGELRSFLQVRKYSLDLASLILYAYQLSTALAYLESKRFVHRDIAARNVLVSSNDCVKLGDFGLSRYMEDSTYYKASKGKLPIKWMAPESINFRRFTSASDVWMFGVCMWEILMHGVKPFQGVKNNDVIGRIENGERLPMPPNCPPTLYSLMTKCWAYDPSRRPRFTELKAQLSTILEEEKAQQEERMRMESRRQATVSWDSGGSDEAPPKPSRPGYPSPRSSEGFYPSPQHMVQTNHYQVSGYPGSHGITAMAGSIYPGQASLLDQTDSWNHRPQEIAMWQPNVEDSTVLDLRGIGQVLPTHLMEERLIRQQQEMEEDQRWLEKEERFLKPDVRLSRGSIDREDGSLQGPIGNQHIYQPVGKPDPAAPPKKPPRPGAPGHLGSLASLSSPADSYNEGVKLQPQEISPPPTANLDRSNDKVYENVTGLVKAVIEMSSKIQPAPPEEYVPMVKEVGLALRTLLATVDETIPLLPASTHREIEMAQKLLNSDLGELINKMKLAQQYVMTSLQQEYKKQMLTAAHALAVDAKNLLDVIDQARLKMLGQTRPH

In the case of `Cc1cc(Cc2ncc(C(F)(F)F)c(NCC3C=C(N(C)S(C)(=O)=O)CCC3)n2)ccc1OCCOCCOCCOc1ccc2c(c1)C(=O)N(C1CCC(=O)NC1=O)C2=O` (stereo unspecified) [US20250214967, Compound A2], the IC50 is reported as 3 nM.
